Where two headings read alike, the source gives them in different places.
Assays:
purified PhnO protein = target: T1, purified PhnO protein (Escherichia coli, UniProt P16691, P2A); experiment: AMPA transacylase acyl-CoA acyl donor specificity, HPLC; assay type: biochemical, E. coli; conditions: for [^14C]-AMPA % Conversion: 5 minutes 30° C.; for % Activity: 1 mM acetyl-CoA = 100% reference
T1 construct: made in house; host or cells: E. coli JM101 carrying pMON15032 (recA promoter, nalidixic acid induction)
Procedure: PhnO was purified from a one liter Luria Bertani broth culture of E. coli JM101 expressing a recombinant phnO gene from pMON15032 after nalidixic acid induction for three hours at 37° C. Cells were harvested by centrifugation and resuspended in 40 ml cold Tris buffer (0.1 M Tris-HCl pH 8) and placed on ice. The cell suspension was brought to 1 mM DTT and 0.5 mM PMSF. The suspension was lysed by 2 passages through a prechilled French pressure cell at 1,100 psi, centrifuged at 12,000 g (10,000 rpm in an Sorvall SA600 rotor) for 40 min at 4° C., then placed on ice. The cleared supernatants were poured into fresh 15 ml polypropylene tubes. The samples were split again into two equal portions and maintained at −80° C. until used further for purification of PhnO protein. 20 microliters of the soluble fraction was assayed for enzyme activity using the HPLC method described above in Example 2, except after terminating the assay with acid addition, the sample was stored at −80° C. A Sephacryl S200 column was prepared according to the manufacturers' instructions and equilibrated with a solution containing 20 mM Tris pH 8.0 and 0.5 mM MgCl2. The entire total soluble extract was layered over the top of the column bed after thawing on ice. Forty 9 ml fractions were collected from the column eluate, and thirty microliters of each fraction was analyzed by western blot using anti-PhnO antiserum after resolution on a 15% SDS-PAGE gel. Also, thirty microliters of each fraction was analyzed for AMPA acyl transferase activity using the method described in Example 2. […] These were represented by fractions 7 through 19 in this example, and were combined into a 100 ml volume, distributed into […] each containing 10 ml volumes, and stored at −80° C. for further use.
Anion exchange chromatography was used to determine the elution pattern of PhnO away from other contaminating proteins that co-elute during the Sephacryl S200 fractionation. One tube from the combined PhnO positive fractions was thawed on ice and injected into a 5/5 Mono-Q column pre-equilibrated with buffers A (one liter of 20 mM Tris-HCl pH 8.0 Mili-Q distilled deionized water) and B (one liter of 20 mM Tris-HCl pH 8.0, 1 M NaCl). The sample containing PhnO active protein was injected into the column and one milliliter fractions were collected. The column was washed for five minutes with a flow rate of 1.8 ml per minute Buffer A after loading the PhnO containing sample. At five minutes, Buffer B was added to the flow volume at 0.5 ml per minute for four minutes. Buffer B was ramped up to 22% of the flow volume at 10 minutes, 30% at 12 minutes, 36% at 13 minutes, 41% at 14 minutes, 46% at 15 minutes, 74% at 16 minutes, and 100% at 16 minutes through 22 minutes, at which point Buffer B flow was terminated and Buffer A was reinitiated at 100% to equilibrate the column. Ten microliter volumes from individual fractions collected from the Mono-Q column were analyzed by western blot and for transacylase activity as described in Example 2. […] Samples of this purified PhnO protein were used to determine enzyme's acyl donor substrate specificity.
Enzyme reactions were prepared as follows. […] A assay premix was prepared from which 45 microliters was used in each 100 microliter reaction. This 45 microliter premix sample consisted of 40 microliters distilled and deionized water, 2 microliters of 50 mM MgCl2, and 3 microliters of 1.3 mM [^14C]-AMPA (115,392 dpm per microliter). Reactions were initiated by mixing 40 microliters of 125 mM Tris-HCl pH 8.0, […] protein sample and 10 microliters acyl-CoA acyl donor compound in a microcentrifuge tube at room temperature. Each acyl-CoA acyl donor compound was prepared as a stock solution of 1 mM, 5 mM or 10 mM stocks. Each tube was then mixed with 45 microliters of the assay premix containing the [^14C]-AMPA […] substrate, mixed gently and transferred to a 30° C. water bath for 5 minutes. […]

PhnO enzyme = PhnO enzyme (Escherichia coli, UniProt P16691, P2A)
Procedure: The ability of the enzyme to produce N-acetyl AMPA from a mixture containing acetyl-CoA and AMPA across a range of pH values was determined. The reactions were carried out in MES/MOPS/Tricine buffer equilibrated to a pH value from 4.5 to 9.0, with actual pH values ranging from 5.2 through 9.0. Briefly, 95 microliters of an appropriate buffer was mixed with 100 microliters of 2×assay mix as described in example 4, and 5 microliters of desalted E. coli lysate containing approximately 400 ng/microliter PhnO protein.

Molecule: CC(C(=O)O)C(=O)SCCNC(=O)CCNC(=O)[C@H](O)C(C)(C)COP(=O)(O)OP(=O)(O)OC[C@H]1O[C@@H](n2cnc3c(N)ncnc32)[C@H](O)[C@@H]1OP(=O)(O)O (stereo partly shown) [Methylmalonyl-CoA, methylmalonyl CoA]
- [^14C]-AMPA % Conversion (purified PhnO protein; acyl donor 0.1 mM): 1.11%
- % Activity (purified PhnO protein; acyl donor 0.1 mM): 1.11%
- [^14C]-AMPA % Conversion (purified PhnO protein; acyl donor 0.5 mM): 2.08%
- % Activity (purified PhnO protein; acyl donor 0.5 mM): 2.08%
- [^14C]-AMPA % Conversion (purified PhnO protein; acyl donor 1 mM): 2.21%
- % Activity (purified PhnO protein; acyl donor 1 mM): 2.21%

Molecule: CC(C)C(=O)SCCNC(=O)CCNC(=O)[C@H](O)C(C)(C)COP(=O)(O)OP(=O)(O)OC[C@H]1O[C@@H](n2cnc3c(N)ncnc32)[C@H](O)[C@@H]1OP(=O)(O)O [Isobutyryl-CoA, isobutyryl-CoA]
- [^14C]-AMPA % Conversion (purified PhnO protein; acyl donor 0.1 mM): 2.10%
- % Activity (purified PhnO protein; acyl donor 0.1 mM): 2.10%
- [^14C]-AMPA % Conversion (purified PhnO protein; acyl donor 0.5 mM): 0.20%
- % Activity (purified PhnO protein; acyl donor 0.5 mM): 0.20%
- [^14C]-AMPA % Conversion (purified PhnO protein; acyl donor 1 mM): 0.00%
- % Activity (purified PhnO protein; acyl donor 1 mM): 0.00%

Molecule: CC(C)(COP(=O)(O)OP(=O)(O)OC[C@H]1O[C@@H](n2cnc3c(N)ncnc32)[C@H](O)[C@@H]1OP(=O)(O)O)[C@@H](O)C(=O)NCCC(=O)NCCSC(=O)CCC(=O)O [Succinyl-CoA, succinyl-CoA]
- [^14C]-AMPA % Conversion (purified PhnO protein; acyl donor 0.1 mM): 5.06%
- % Activity (purified PhnO protein; acyl donor 0.1 mM): 5.06%
- [^14C]-AMPA % Conversion (purified PhnO protein; acyl donor 0.5 mM): 3.38%
- % Activity (purified PhnO protein; acyl donor 0.5 mM): 3.38%
- [^14C]-AMPA % Conversion (purified PhnO protein; acyl donor 1 mM): 1.56%
- % Activity (purified PhnO protein; acyl donor 1 mM): 1.56%

Molecule: CCCCC(=O)SCCNC(=O)CCNC(=O)[C@H](O)C(C)(C)COP(=O)(O)OP(=O)(O)OC[C@H]1O[C@@H](n2cnc3c(N)ncnc32)[C@H](O)[C@@H]1OP(=O)(O)O [Valeryl-CoA, n-valeryl-CoA]
- [^14C]-AMPA % Conversion (purified PhnO protein; acyl donor 0.1 mM): 0.24%
- % Activity (purified PhnO protein; acyl donor 0.1 mM): 0.24%
- [^14C]-AMPA % Conversion (purified PhnO protein; acyl donor 0.5 mM): 0.00%
- % Activity (purified PhnO protein; acyl donor 0.5 mM): 0.00%
- [^14C]-AMPA % Conversion (purified PhnO protein; acyl donor 1 mM): 0.33%
- % Activity (purified PhnO protein; acyl donor 1 mM): 0.33%

Molecule: C/C=C(\C)C(=O)SCCNC(=O)CCNC(=O)[C@H](O)C(C)(C)COP(=O)(O)OP(=O)(O)OC[C@H]1O[C@@H](n2cnc3c(N)ncnc32)[C@H](O)[C@@H]1OP(=O)(O)O [Tiglyl-CoA, tiglyl-CoA]
- [^14C]-AMPA % Conversion (purified PhnO protein; acyl donor 0.1 mM): 0.00%
- % Activity (purified PhnO protein; acyl donor 0.1 mM): 0.00%
- [^14C]-AMPA % Conversion (purified PhnO protein; acyl donor 0.5 mM): 0.00%
- % Activity (purified PhnO protein; acyl donor 0.5 mM): 0.00%
- [^14C]-AMPA % Conversion (purified PhnO protein; acyl donor 1 mM): 0.99%
- % Activity (purified PhnO protein; acyl donor 1 mM): 0.99%

Molecule: C/C=C/C(=O)SCCNC(=O)CCNC(=O)[C@H](O)C(C)(C)COP(=O)(O)OP(=O)(O)OC[C@H]1O[C@@H](n2cnc3c(N)ncnc32)[C@H](O)[C@@H]1OP(=O)(O)O [Crotonoyl-CoA, crotonoyl-CoA]
- [^14C]-AMPA % Conversion (purified PhnO protein; acyl donor 0.1 mM): 0.80%
- % Activity (purified PhnO protein; acyl donor 0.1 mM): 0.80%
- [^14C]-AMPA % Conversion (purified PhnO protein; acyl donor 0.5 mM): 0.00%
- % Activity (purified PhnO protein; acyl donor 0.5 mM): 0.00%
- [^14C]-AMPA % Conversion (purified PhnO protein; acyl donor 1 mM): 0.00%
- % Activity (purified PhnO protein; acyl donor 1 mM): 0.00%

Molecule: CCNC(=O)CCNC(=O)[C@H](O)C(C)(C)COP(=O)(O)OP(=O)(O)OC[C@H]1O[C@@H](n2cnc3c(N)ncnc32)[C@H](O)[C@@H]1OP(=O)(O)O [Desulfo-CoA, desulfo-CoA]
- [^14C]-AMPA % Conversion (purified PhnO protein; acyl donor 0.1 mM): 0.95%
- % Activity (purified PhnO protein; acyl donor 0.1 mM): 0.95%
- [^14C]-AMPA % Conversion (purified PhnO protein; acyl donor 0.5 mM): 1.25%
- % Activity (purified PhnO protein; acyl donor 0.5 mM): 1.25%
- [^14C]-AMPA % Conversion (purified PhnO protein; acyl donor 1 mM): 0.52%
- % Activity (purified PhnO protein; acyl donor 1 mM): 0.52%

Molecule: CCC(=O)SCCNC(=O)CCNC(=O)[C@H](O)C(C)(C)COP(=O)(O)OP(=O)(O)OC[C@H]1O[C@@H](n2cnc3c(N)ncnc32)[C@H](O)[C@@H]1OP(=O)(O)O [Propionyl-CoA, n-propionyl-CoA]
- [^14C]-AMPA % Conversion (purified PhnO protein; acyl donor 0.1 mM): 78.2%
- % Activity (purified PhnO protein; acyl donor 0.1 mM): 78.2%
- [^14C]-AMPA % Conversion (purified PhnO protein; acyl donor 0.5 mM): 97.8%
- % Activity (purified PhnO protein; acyl donor 0.5 mM): 97.8%
- [^14C]-AMPA % Conversion (purified PhnO protein; acyl donor 1 mM): 100.00%
- % Activity (purified PhnO protein; acyl donor 1 mM): 100.00%

Molecule: CC(C)(COP(=O)(O)OP(=O)(O)OC[C@H]1O[C@@H](n2cnc3c(N)ncnc32)[C@H](O)[C@@H]1OP(=O)(O)O)[C@@H](O)C(=O)NCCC(=O)NCCSC(=O)CCCC(=O)O [Glutaryl-CoA, glutaryl-CoA]
- [^14C]-AMPA % Conversion (purified PhnO protein; acyl donor 0.1 mM): 0.81%
- % Activity (purified PhnO protein; acyl donor 0.1 mM): 0.81%
- [^14C]-AMPA % Conversion (purified PhnO protein; acyl donor 0.5 mM): 0.00%
- % Activity (purified PhnO protein; acyl donor 0.5 mM): 0.00%
- [^14C]-AMPA % Conversion (purified PhnO protein; acyl donor 1 mM): 0.57%
- % Activity (purified PhnO protein; acyl donor 1 mM): 0.57%

B1: PhnO: AMPA acyltransferase protein encoded by the phnO gene within the E. coli phn operon (protein)
chain: MAACELRPATQYDTDAVYALICELKQAEFDHHAFRVGFNANLRDPNMRYHLALLDGEVVGMIGLHLQFHLHHVNWIGEIQELVVMPQARGLNVGSKLLAWAEEEARQAGAEMTELSTNVKRHDAHRFYLREGYEQSHFRFTKAL
- pH of optimum PhnO transacylase activity (PhnO enzyme; AMPA and acetyl-CoA as substrates): ~8.0 pH
- N-Acetyl CoA (PhnO enzyme; Buffer pH 5.0): 222 nmol
- Velocity (PhnO enzyme; Buffer pH 5.0): 22.2 nmole/min/microgram
- % Turnover (PhnO enzyme; Buffer pH 5.0 (mock reaction pH 5.23)): 3.7%
- N-Acetyl CoA (PhnO enzyme; Buffer pH 5.5): 234 nmol
- Velocity (PhnO enzyme; Buffer pH 5.5): 23.4 nmole/min/microgram
- % Turnover (PhnO enzyme; Buffer pH 5.5 (mock reaction pH 5.62)): 3.9%
- N-Acetyl CoA (PhnO enzyme; Buffer pH 6.0): 252 nmol
- Velocity (PhnO enzyme; Buffer pH 6.0): 25.2 nmole/min/microgram
- % Turnover (PhnO enzyme; Buffer pH 6.0 (mock reaction pH 5.92)): 4.2%
- N-Acetyl CoA (PhnO enzyme; Buffer pH 6.5): 798 nmol
- Velocity (PhnO enzyme; Buffer pH 6.5): 79.8 nmole/min/microgram
- % Turnover (PhnO enzyme; Buffer pH 6.5 (mock reaction pH 6.47)): 13.3%
- N-Acetyl CoA (PhnO enzyme; Buffer pH 7.0): 1620 nmol
- Velocity (PhnO enzyme; Buffer pH 7.0): 162.0 nmole/min/microgram
- % Turnover (PhnO enzyme; Buffer pH 7.0 (mock reaction pH 7.0)): 27.0%
- N-Acetyl CoA (PhnO enzyme; Buffer pH 7.5): 1920 nmol
- Velocity (PhnO enzyme; Buffer pH 7.5): 192.0 nmole/min/microgram
- % Turnover (PhnO enzyme; Buffer pH 7.5 (mock reaction pH 7.48)): 32.0%
- N-Acetyl CoA (PhnO enzyme; Buffer pH 8.0): 2058 nmol
- Velocity (PhnO enzyme; Buffer pH 8.0): 205.8 nmole/min/microgram
- % Turnover (PhnO enzyme; Buffer pH 8.0 (mock reaction pH 8.05)): 34.3%
- N-Acetyl CoA (PhnO enzyme; Buffer pH 8.5): 2010 nmol
- Velocity (PhnO enzyme; Buffer pH 8.5): 201.0 nmole/min/microgram
- % Turnover (PhnO enzyme; Buffer pH 8.5 (mock reaction pH 8.46)): 33.5%
- N-Acetyl CoA (PhnO enzyme; Buffer pH 9.0): 2034 nmol
- Velocity (PhnO enzyme; Buffer pH 9.0): 203.4 nmole/min/microgram
- % Turnover (PhnO enzyme; Buffer pH 9.0 (mock reaction pH 9.0)): 33.9%
